Tests used:
SOD1-G93A mice [1] = tested on: SOD1-G93A mice
Description: Drug Treatment and Survival Analysis:
Baseline and study measures were recorded for weight, grip strength, food consumption, and survival. Determination of end-stage was the inability for a mouse to right itself after 30 seconds of being placed on its side.

liver of SOD1-G93A mice = details: mouse, in vivo
Description: Periodic Acid Schiff Staining:
Saline perfused liver was postfixed with 4% paraformaldehyde for 24 h followed by 24 h incubation in 30% sucrose solution, embedded in OCT solution, and stored at −80° C. until sectioned (10 μm thickness). Sections were hydrated with water, immersed in PAS solutions (Sigma; 395) for 5 min at room temperature, and washed in water. Sections were immersed for 4 min in Schiff's reagent and washed in water for 5 min. Sections were counterstained with hematoxylin solution, dehydrated in ethanol and HemoD solution, mounted, and imaged.

SOD1-G93A mice [2] = assay: Compound muscle action potential (CMAP) recordings; type: in vivo; details: 140 day SOD1-G93A mice
Excerpt: Compound Muscle Action Potential (CMAP) Recordings:
Mice were anesthetized with 1% isoflurane and 0.5% oxygen. Following dermatomoty, stainless steel-stimulating needle electrodes were inserted at the sciatic notch, near the sciatic nerve. A ground electrode was placed subcutaneously in the back, and a reference electrode placed subcutaneously at the ankle. The sciatic nerve was stimulated (0.2 ms duration; 1.6 mV amplitude) and the response recorded via a needle electrode inserted into the plantar muscle in the medial half of the foot, following the line connecting the first and fifth tarsal/metatarsal joints. Data was collected using ADI Powerlab 8/30 stimulator and BioAMP amplifier (ADInstruments, Colorado Springs, Colo.) and analyzed using Scope 3.5.6 (ADInstruments). The compound muscle action potential (M-wave) amplitude was measured from baseline to peak. Data was averaged between left and right hind limb traces.

ALS = ALS patients; cited from earlier work

| Compound | effect on disease progression / survival (SOD1-G93A mice [1]; chronic elacridar alone, beginning at disease onset, SOD1-G93A mice) | safety of chronic treatment (SOD1-G93A mice [1]; mouse, in vivo) | liver toxicity (periodic acid Schiff staining) (liver of SOD1-G93A mice) | CMAP peak amplitude (SOD1-G93A mice [2]) | slowing of disease progression (ALS) |
| --- | --- | --- | --- | --- | --- |
| COc1cc2c(cc1OC)CN(CCc1ccc(NC(=O)c3cccc4c(=O)c5cccc(OC)c5[nH]c34)cc1)CC2 [elacridar, N-[4-[2-(3,4-dihydro-6,7-dimethoxy-2(1H)-isoquinolinyl)ethyl]phenyl]-9,10-dihydro-5-methoxy-9-oxo-4-acridine carboxamide] | did not alter disease progression | safe | did not cause liver toxicity |  |  |
| Nc1nc2ccc(OC(F)(F)F)cc2s1 [riluzole, 6-(trifluoromethoxy)benzothiazol-2-amine] |  |  |  | 5.00±0.67 mV | 3-9 months |

— patent US11369596B2, “Methods of treating a neurodegenerative disease in a mammal in need thereof” (Thomas Jefferson University, priority 2013, dated 2022)
